Experimental data published in patent US20240197761A1, “FUCOSYLATION AND IMMUNE MODULATION IN CANCER” (H. LEE MOFFITT CANCER CENTER AND RESEARCH INSTITUTE, INC., priority 2021, published 2024).

Tested on: NRAS G13D-mutant mouse melanoma (SW1) tumors
Assay: SW1 mouse melanoma model ± oral L-fucose: tumor growth, tumor fucosylation, itIC and splenic flow cytometric profiling
Type: in vivo, C3H/HeN mice
Settings: oral L-fuc
Procedure: Tumors of SW1 or SM1 melanoma cells from […] or C57BL/6 mice, respectively) were digested using 1× tumor digest buffer (0.5 mg/mL Collagenase I, 0.5 mg/mL Collagenase IV, 0.25 mg/mL Hyalyronidase V, 0.1 mg/mL DNAse I in HBSS (Millipore Sigma (St. Louis, MO)). Tumors were homogenized using the Miltenyi MACs dissociator. Red blood cells were lysed using ACK lysis buffer (Life Technologies, (Grand Island, NY)). Tumor homogenate cells were counted using a standard hemocytometer.
Total TILs were gated first to single cells (based on forward scatter height vs width, followed by side scatter height vs. width). Live cells were gated from the Zombie negative population from the population above. TILs were gated based on splenocyte size from a control spleen. Individual immune subpopulations were sub-gated from the total TIL population using the following staining criteria: CD3+ for CD3+ T cells; CD3+/CD4+/CD8− for CD4+T cells; CD3+/CD4−/CD8+ for CD8+ T cells, CD11c+/CD11b+ for DCs; either NK1.1 (for C57/BL6 mice) or DX5 (for C3H/HeJ) for NK cells; CD11b+/GR1+ for MDSC-like cells; and F4/80+ for macrophages. Single-cell suspensions from tumor and spleen tissue were stained with Live/Dead Zombie NIR (Biolegend, (San Diego, CA)) at 1:1,000 in PBS for 20 min. Cell suspensions were spun down and stained with the following with antibodies at 0.5 μg/ml per antibody: APC anti-mouse CD3, Pacific Blue anti-mouse CD4, BV785 anti-mouse CD8, PerCP anti-mouse CD25, FITC anti-mouse F4/80, PeCy7 anti-mouse CD11c, PE anti-mouse NK1.1 or PE anti-mouse DX5, and PerCP-Cy5.5 anti-mouse CD11 b. After staining, the cells were washed and fixed (2% formaldehyde), followed by another wash and flow cytometric analysis. The compensation controls were prepared using 0.5 μg/mL of each antibody with UltraComp eBeads, (ThermoFisher Scientific (Waltham, MA)). All samples were subject to flow cytometric profiling using a LSR Flow Cytometer (BD Biosciences (San Jose, CA)) and analysis as indicated using FlowJo software (BD Biosciences (San Jose, CA)).
For assessment of mouse tumor fucosylation, FFPE tumor sections were immunostained with FITC-conjugated AAL lectin (0.4 μg/mL, Vector Laboratories (Burlingame, CA)) and rabbit anti-Mart1+rabbit anti-S100 (melanoma marker cocktail). The slides were mounted with Vectashield+DAPI (Vector Laboratories (Burlingame, CA)). Four representative microscopy images per tumor were acquired using a Keyence BZ-X710, and images were process and analyzed using FIJI (NIH) as follows: melanoma marker-positive regions were assigned as regions of interest (ROI) in which we measured Integrated density of AAL signal. Integrated densities of control tumors were assigned as 1, and Integrated AAL density values of experimental tumors were divided by control to produce relative fold changes and plotted as column charts. […]

Compound: C[C@H](O)[C@@H](O)[C@@H](O)[C@H](O)C=O [L-fucose]
- CD4+ and CD8+ T cells of total itICs: doubled
- increase of total itICs: 10-50 fold
- increase of tumor fucosylation: ~2 fold
- reduction of tumor growth: ~50%
- splenic lymphocyte profiles: without altering
